# Measurements from the supplement of paper PMC10307832.
# Key:
# Experiment in all cases: relative viability (nuclei count vs DMSO), 5 days (fraction); higher = more cells survive
# BAY61-3606 = compound: COC1=C(C=C(C=C1)C2=CC3=NC=CN3C(=N2)NC4=C(C=CC=N4)C(=O)N)OC [BAY61-3606]
# Procedure, shortened: (§1)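 In 1536-well plates, lung cancer cell lines rested overnight at 37 °C before five library-drug doses (not always all listed), √10 apart, were pinned onto vehicle-anchored plates. Nuclei were counted with MetaXpress from 4× Hoechst images taken after 5 days without medium change. Viability compares treated-well with vehicle-well nuclei as a median over plates, and plates needed control CV below 25% plus at least one doubling to pass.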
# Doxorubicin = compound: COc1cccc2c1C(=O)c1c(O)c3c(c(O)c1C2=O)C[C@@](O)(C(=O)CO)C[C@@H]3O[C@H]1C[C@H](N)[C@H](O)[C@H](C)O1 [Doxorubicin]
# Procedure, shortened: as §1
# BAY61-3606 + Trametinib = compound: COC1=C(C=C(C=C1)C2=CC3=NC=CN3C(=N2)NC4=C(C=CC=N4)C(=O)N)OC [BAY61-3606] + CC(=O)Nc1cccc(-n2c(=O)n(C3CC3)c(=O)c3c(Nc4ccc(I)cc4F)n(C)c(=O)c(C)c32)c1 [Trametinib] (partner 0.02 µM)
# Procedure, shortened: (§2)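 One day after seeding in 1536-well plates, lung cancer cell lines were dosed by pin tool. Dosing was either single-drug or a fixed anchor-drug dose plus five library-drug doses (not always all listed) in √10 steps. After 5 days, nuclei were stained in one fix-and-stain step and counted on 4× images, and relative viability is the nuclei count of treated wells over that of vehicle wells, given as the median of duplicate plates.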
# Doxorubicin + Navitoclax = compound: COc1cccc2c1C(=O)c1c(O)c3c(c(O)c1C2=O)C[C@@](O)(C(=O)CO)C[C@@H]3O[C@H]1C[C@H](N)[C@H](O)[C@H](C)O1 [Doxorubicin] + CC1(C)CCC(c2ccc(Cl)cc2)=C(CN2CCN(c3ccc(C(=O)NS(=O)(=O)c4ccc(N[C@H](CCN5CCOCC5)CSc5ccccc5)c(S(=O)(=O)C(F)(F)F)c4)cc3)CC2)C1 [Navitoclax] (partner 0.5 µM)
# Procedure, shortened: as §2
Cell Line,relative viability (BAY61-3606; 0.02 µM),relative viability (BAY61-3606; 0.06325 µM),relative viability (BAY61-3606; 0.2 µM),relative viability (BAY61-3606; 0.6325 µM),relative viability (BAY61-3606; 2 µM),relative viability (Doxorubicin; 0.001 µM),relative viability (Doxorubicin; 0.003162 µM),relative viability (Doxorubicin; 0.01 µM),relative viability (Doxorubicin; 0.03162 µM),relative viability (Doxorubicin; 0.1 µM),relative viability (BAY61-3606 + Trametinib; first compound 0.02 µM),relative viability (BAY61-3606 + Trametinib; first compound 0.06325 µM),relative viability (BAY61-3606 + Trametinib; first compound 0.2 µM),relative viability (BAY61-3606 + Trametinib; first compound 0.6325 µM),relative viability (BAY61-3606 + Trametinib; first compound 2 µM),relative viability (Doxorubicin + Navitoclax; first compound 0.001 µM),relative viability (Doxorubicin + Navitoclax; first compound 0.003162 µM),relative viability (Doxorubicin + Navitoclax; first compound 0.01 µM),relative viability (Doxorubicin + Navitoclax; first compound 0.03162 µM),relative viability (Doxorubicin + Navitoclax; first compound 0.1 µM)
LK-2,1.08,0.939,1.06,1.09,0.923,0.903,1.08,0.829,0.788,1.08,0.727,0.806,0.897,0.915,0.683,0.894,0.875,0.889,0.638,0.804
NCI-H2228,1.18,0.922,0.944,1.06,0.792,0.859,1,0.822,0.606,0.339,0.523,0.439,0.476,0.531,0.365,1.24,0.752,0.876,0.552,0.321
NCI-H460,1.04,1.03,0.959,0.998,0.891,0.957,0.96,0.859,0.468,0.141,0.153,0.173,0.134,0.117,0.104,1.07,1.18,0.945,0.0444,0.0158
NCI-H1993,0.958,0.896,0.818,0.97,0.806,0.967,0.927,1.01,0.819,0.749,0.498,0.507,0.544,0.538,0.518,0.947,0.876,0.884,1.01,0.889
NCI-H2170,0.983,0.978,0.974,1.03,0.932,0.973,0.992,0.93,0.799,1.02,0.859,0.879,0.907,0.916,0.762,0.584,0.726,0.567,0.389,0.597
LXF-289,0.95,1.07,0.874,1.04,1.05,0.952,1.03,1.01,1.05,1.01,0.694,0.673,0.722,0.752,0.766,0.935,0.939,0.873,0.983,0.944
NCI-H596,0.96,0.96,1.07,1.15,0.86,0.97,1.16,1.08,0.853,0.948,0.879,0.793,0.701,1.01,0.696,0.931,0.963,0.903,0.832,0.972
NCI-H3122,1.02,1,0.985,1.01,0.961,0.946,1.01,0.908,0.876,0.92,0.235,0.24,0.246,0.242,0.249,1.05,1.01,0.973,1.02,1.02
NCI-H2023,1.14,1.05,1,1.16,0.697,0.873,0.903,0.706,0.209,0.0985,0.571,0.64,0.518,0.587,0.413,0.956,1.05,0.886,0.482,0.16
HCC-15,1,0.971,0.994,0.988,0.896,0.807,1.08,0.975,0.811,0.654,0.425,0.375,0.385,0.382,0.423,0.707,0.716,0.705,0.665,0.634
HCC-78,1.04,0.934,0.973,0.985,1.08,1,0.999,0.851,0.955,0.954,0.763,0.745,0.738,0.836,0.859,0.41,0.689,0.753,0.692,0.768
COR-L23,1.05,1.09,1.06,1,0.909,0.998,1.05,0.932,0.718,0.235,0.725,0.668,0.635,0.751,0.558,1.03,1.12,0.82,0.63,0.169
HCC-827,1.02,1.01,1.06,1.1,0.994,1.01,1.01,1.04,1.03,1,0.511,0.585,0.539,0.583,0.608,1.03,1.03,1.06,1.1,1.03
NCI-H1355,1.08,0.916,0.937,0.961,0.882,0.888,1.04,1.01,0.989,1.01,0.424,0.447,0.409,0.46,0.345,0.982,1.1,0.911,0.904,1.06
RERF-LC-KJ,1.04,1.03,0.93,1.06,0.791,0.986,1.04,0.986,0.713,0.904,0.868,0.846,0.901,0.866,0.676,1.05,0.765,1.12,–,1.05
NCI-H2126,1.07,0.931,0.944,1.05,0.915,0.946,1,0.97,0.914,1.01,0.622,0.539,0.514,0.567,0.57,0.853,0.826,0.864,0.884,0.928
BEN,1.05,0.891,1.1,1.07,1.05,1.19,1.03,0.985,0.683,0.85,1.21,1.01,1.11,1.21,1.2,0.0762,0.071,0.0683,0.0474,0.0661
LCLC-97TM1,1.06,1.07,1,0.892,1.01,0.909,1.11,0.909,0.822,0.749,0.207,0.195,0.203,0.187,0.205,0.284,0.411,0.524,0.398,0.331
EKVX,1.04,1,0.884,1.07,0.99,1.01,1.03,0.963,0.951,0.902,0.497,0.308,0.303,0.361,0.365,0.929,1.09,1,0.853,0.61
PC-14,1.07,1.04,0.916,0.992,0.877,0.974,1.05,1.01,0.789,0.52,0.732,0.887,0.732,1.01,0.607,0.997,1.1,0.973,1.01,0.945
NCI-H1651,1.01,0.93,0.986,1.01,0.883,0.949,0.96,0.925,0.642,0.635,0.929,0.809,0.833,0.844,0.762,0.991,1.19,0.801,0.436,0.204
NCI-H2087,0.996,1.15,1.18,1.11,0.961,0.819,1.15,1.01,0.78,0.636,0.228,0.196,0.202,0.178,0.2,0.973,1.05,1.05,0.967,0.918
NCI-H1944,1.08,1,0.95,0.785,0.619,0.929,1.02,0.902,0.692,0.802,0.469,0.392,0.405,0.369,0.299,1.05,1.13,1.03,0.977,1.19
COR-L 105,0.932,0.892,0.951,0.852,0.568,0.951,0.853,0.827,0.706,0.503,0.474,0.414,0.463,0.429,0.436,0.965,0.721,0.724,0.48,0.377
NCI-H1437,1.03,1.03,0.978,1,0.941,0.991,1.01,0.894,0.718,0.409,0.537,0.456,0.523,0.602,0.462,1.03,1.12,1.02,0.75,0.379
H3255,0.976,0.905,0.928,1.16,0.898,0.892,0.993,0.931,0.849,0.727,0.688,0.538,0.598,0.715,0.587,0.603,0.617,0.53,0.457,0.289
NCI-H2009,1.06,1.03,0.997,0.989,0.894,0.99,1.01,0.94,0.843,0.504,0.318,0.229,0.378,0.303,0.206,1.21,1.15,1.17,0.962,0.604
NCI-H1755,1.05,1,0.995,1.05,0.988,0.999,0.979,1,1.03,1.02,0.768,0.853,0.792,0.769,0.762,1,1.03,0.927,0.991,1.02
LU99A,1.04,0.953,1.01,0.967,0.702,0.938,1.02,0.893,0.838,0.813,0.485,0.57,0.534,0.503,0.47,0.783,0.919,0.867,0.554,0.801
ChaGo-K-1,0.97,0.942,0.918,0.949,0.945,1.06,1.09,0.923,0.892,0.563,0.947,0.893,0.921,0.872,0.939,1.16,0.807,0.888,0.515,0.316
